The source of these data is patent publication US12208088B2 (Genentech, Inc., priority 2018, dated 2025).

In this experiment the target is HPK1 (Homo sapiens (Human), UniProt Q92918). Kind of experiment: HPK1 Lantha binding assay ("Lanth"). The following applies: binding assays; Morrison Ki fit. The procedure, abridged: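 TR-FRET binding competition using 2 nM HPK1, 2 nM Eu-anti-GST antibody and 15 nM Tracer222 at 23 °C. Compound was incubated 1 h with enzyme and antibody, then 1 h after tracer addition, with an 11-point 5-fold dilution series. Ki obtained from a Morrison fit that corrects for tracer concentration and Kd.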

The term Ki denotes the equilibrium dissociation constant of an inhibitor or competing ligand from its target. A lower Ki goes with a stronger hold on the target.

HPK1, sequence (Q92918 1-346 limits assumed): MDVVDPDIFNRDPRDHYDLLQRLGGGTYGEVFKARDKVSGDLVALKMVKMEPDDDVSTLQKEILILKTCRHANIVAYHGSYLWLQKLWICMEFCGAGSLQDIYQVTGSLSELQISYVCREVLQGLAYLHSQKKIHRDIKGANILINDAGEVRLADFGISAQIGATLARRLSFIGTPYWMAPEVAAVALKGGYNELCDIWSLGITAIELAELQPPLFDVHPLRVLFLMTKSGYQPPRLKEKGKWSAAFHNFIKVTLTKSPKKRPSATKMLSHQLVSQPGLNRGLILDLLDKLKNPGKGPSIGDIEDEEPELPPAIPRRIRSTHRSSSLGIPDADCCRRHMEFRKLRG

Consider `CN(C)C(=O)c1c(N)ccc(-c2cnc3c(c2Cl)[C@@]2(CC[C@@H](C(N)=O)C2)CN3)c1F` (single isomer, unassigned) [Compound 100b], for which the affinity corresponds to a Ki of 1.74 nM. The same measure for `CN(C)C(=O)c1c(N)ccc(-c2cnc3c(c2Cl)[C@]2(CC[C@H](C(=O)O)C2)CN3)c1F` (single isomer, unassigned) [Compound 105a]: 9.85 nM; for `CN(C)C(=O)c1c(N)ccc(-c2cnc3c(c2Cl)[C@]2(CC[C@H](C(=O)N(C)C)C2)CN3)c1F` (single isomer, unassigned) [Compound 107a]: 50.1 nM. Take `CN(C)C(=O)c1c(N)ccc(-c2cnc3c(c2Cl)[C@]2(CC[C@](O)(Cn4cncn4)C2)CN3)c1F` (single isomer, unassigned) [Compound 116c]: the inhibitory constant (Ki) turned out to be 140 nM. Molecule `CN(C)C(=O)c1c(N)ccc(-c2cnc3c(c2Cl)[C@]2(CC[C@H](n4ncnc4N)C2)CN3)c1F` (single isomer, unassigned) [Compound 118a] gave an inhibition constant Ki of 8.49 nM. On to `CN(C)C(=O)c1c(N)ccc(-c2cnc3c(c2Cl)[C@@]2(CCC(=O)NC2)CN3)c1F` (single isomer, unassigned) [Compound 123a], for which affinity was put at a Ki of 37.6 nM.

Molecule `CN(C)C(=O)c1c(N)ccc(-c2cnc3c(c2Cl)[C@]2(CCC(=O)NC2)CN3)c1F` (single isomer, unassigned) [Compound 123b] gave an inhibition constant (Ki) of 771 nM. `C[C@H]1Nc2ncc(-c3ccc(N)c(C(=O)N(C)C)c3F)cc2C12CC2` (single isomer, unassigned) [Compound 128a] displayed a Ki of 46.6 nM. Molecule `C[C@@H]1Nc2ncc(-c3ccc(N)c(C(=O)N(C)C)c3F)cc2C12CC2` (single isomer, unassigned) [Compound 128b] came in with a Ki of 42.2 nM. The same measure for `CN(C)C(=O)c1c(N)ccc(-c2cnc3c(c2Cl)[C@]2(CC[C@](C)(C#N)C2)CN3)c1F` (single isomer, unassigned) [Compound 131a]: 3.93 nM.

`CN(C)C(=O)c1c(N)ccc(-c2cnc3c(c2Cl)[C@]2(CC[C@@H](CC(N)=O)C2)CN3)c1F` (single isomer, unassigned) [Compound 135c] registered an inhibitory constant (Ki) of 2.95 nM. The result for `CN(C)C(=O)c1c(N)ccc(-c2cnc3c(c2Cl)[C@]2(CC[C@H](N4CCCC4=O)C2)CN3)c1F` (single isomer, unassigned) [Compound 143a] reads 157 nM. In turn, `CN(C)C(=O)c1c(N)ccc(-c2cnc3c(c2Cl)[C@@]2(CN3)C[C@H](O)[C@@H](n3ccnn3)C2)c1F` (single isomer, unassigned) [Compound 146c] had a Ki of 74.6 nM. Molecule `CN(C)C(=O)c1c(N)ccc(-c2cnc3c(c2Cl)[C@@]2(CC[C@@](C)(C(N)=O)C2)CN3)c1F` (single isomer, unassigned) [Compound 155b] had an inhibition constant (Ki) of 84.8 nM. Molecule `Cc1cc(C#N)nn1[C@H]1CC[C@@]2(CNc3ncc(-c4ccc(N)c(C(=O)N(C)C)c4F)c(Cl)c32)C1` (single isomer, unassigned) [Compound 162a] registered an inhibition constant (Ki) of 103 nM. In the case of `CN(C)C(=O)c1c(N)ccc(-c2cnc3c(c2Cl)[C@]2(CC[C@H](n4ccc(C(F)(F)F)n4)C2)CN3)c1F` (single isomer, unassigned) [Compound 168a], the inhibitory constant (Ki) is 26.3 nM. Consider `Cn1cc([C@H]2CCCN2C(=O)c2cccc(-c3cnc4c(c3)C3(CC3)CN4)c2F)cn1` (single isomer, unassigned) [Compound 174a], for which the affinity, expressed as Ki, was 74.2 nM. The result for `Cn1cc([C@@H]2CCCN2C(=O)c2cccc(-c3cnc4c(c3)C3(CC3)CN4)c2F)cn1` (single isomer, unassigned) [Compound 174b] reads 582 nM; that for `Cn1cc([C@H]2CCCCN2C(=O)c2cccc(-c3cnc4c(c3)C3(CC3)CN4)c2F)cn1` (single isomer, unassigned) [Compound 175a], 4.2 nM. Consider `Cn1cc([C@@H]2CCCCN2C(=O)c2cccc(-c3cnc4c(c3)C3(CC3)CN4)c2F)cn1` (single isomer, unassigned) [Compound 175b], for which the affinity corresponds to a Ki of 945 nM. The result for `Cn1cccc(-c2cccc(-c3cnc4c(c3Cl)[C@]3(CC[C@](C)(C(N)=O)C3)CN4)c2)c1=O` (single isomer, unassigned) [Compound 179a] reads 194 nM; that for `Cn1cccc(-c2cccc(-c3cnc4c(c3Cl)[C@@]3(CC[C@@](C)(C(N)=O)C3)CN4)c2)c1=O` (single isomer, unassigned) [Compound 179b], 0.91 nM; that for `CC1(C#N)CCCN1C(=O)c1cccc(-c2cnc3c(c2)C2(CC2)CN3)c1F` (single isomer, unassigned) [Compound 191a], 34.7 nM. The same measure for `CC(C)[C@H]1C[C@@]12CNc1ncc(-c3ccc(N)c(C(=O)N(C)C)c3F)c(Cl)c12` (single isomer, unassigned) [Compound 193a]: 3.64 nM. In the case of `CC(C)[C@@H]1C[C@]12CNc1ncc(-c3ccc(N)c(C(=O)N(C)C)c3F)c(Cl)c12` (single isomer, unassigned) [Compound 193b], the inhibitory constant (Ki) is 1.41 nM. Take `CN(C)C(=O)c1cccc(-c2cnc3c(c2Cl)[C@]2(CC[C@](C)(C(N)=O)C2)CN3)c1F` (single isomer, unassigned) [Compound 195b]: the affinity, expressed as Ki, was 6.23 nM. The same measure for `CCC[C@H]1C[C@@]12CNc1ncc(-c3ccc(N)c(C(=O)N(C)C)c3F)c(Cl)c12` (single isomer, unassigned) [Compound 197a]: 5.13 nM; for `CCC[C@@H]1C[C@]12CNc1ncc(-c3ccc(N)c(C(=O)N(C)C)c3F)c(Cl)c12` (single isomer, unassigned) [Compound 197b]: 3.64 nM; for `CN(C)C(=O)c1cccc(-c2cnc3c(c2)[C@]2(CC[C@](C)(C(N)=O)C2)CN3)c1F` (single isomer, unassigned) [Compound 199a]: 941 nM. The result for `CN(C)C(=O)c1cccc(-c2cnc3c(c2)[C@@]2(CC[C@@](C)(C(N)=O)C2)CN3)c1F` (single isomer, unassigned) [Compound 199b] reads 105 nM. The same measure for `C[C@]1(C(N)=O)CC[C@@]2(CNc3ncc(-c4cccc(N5CCOCC5=O)c4F)c(Cl)c32)C1` (single isomer, unassigned) [Compound 202b]: 21.9 nM; for `CCC[C@H]1C[C@@]12CNc1ncc(-c3ccc(N)c(C(=O)N(C)C)c3F)cc12` (single isomer, unassigned) [Compound 217a]: 9.4 nM. `CCC[C@@H]1C[C@]12CNc1ncc(-c3ccc(N)c(C(=O)N(C)C)c3F)cc12` (single isomer, unassigned) [Compound 217b] came in with a Ki of 9.05 nM. The same measure for `CCC[C@@H]1C[C@@]12CNc1ncc(-c3ccc(N)c(C(=O)N(C)C)c3F)cc12` (single isomer, unassigned) [Compound 217c]: 67.9 nM. In turn, `CCC[C@H]1C[C@]12CNc1ncc(-c3ccc(N)c(C(=O)N(C)C)c3F)cc12` (single isomer, unassigned) [Compound 217d] showed an inhibition constant Ki of 23.4 nM. The molecule `C[C@H]1C[C@@]12CNc1ncc(-c3ccc(N)c(C(=O)N(C)C)c3F)c(Cl)c12` (single isomer, unassigned) [Compound 228a] gave a Ki of 4.76 nM. For `C[C@@H]1C[C@]12CNc1ncc(-c3ccc(N)c(C(=O)N(C)C)c3F)c(Cl)c12` (single isomer, unassigned) [Compound 228b], the Ki came out at 1.73 nM. The result for `C[C@H](c1cnn(C)c1)N(C)C(=O)c1cccc(-c2cnc3c(c2)C2(CC2)CN3)c1F` (single isomer, unassigned) [Compound 229a] reads 11 nM; that for `C[C@@H](c1cnn(C)c1)N(C)C(=O)c1cccc(-c2cnc3c(c2)C2(CC2)CN3)c1F` (single isomer, unassigned) [Compound 229b], 13 nM. Take `CC(C)[C@H]1C[C@@]12CNc1ncc(-c3ccc(N)c(C(=O)N(C)C)c3F)cc12` (single isomer, unassigned) [Compound 234a]: the Ki is 3.92 nM. Turning to `CC(C)[C@@H]1C[C@@]12CNc1ncc(-c3ccc(N)c(C(=O)N(C)C)c3F)cc12` (single isomer, unassigned) [Compound 234c], the Ki came out at 103 nM. For `CC(C)C1C[C@]12CNc1ncc(-c3ccc(N)c(C(=O)N(C)C)c3F)cc12` (single isomer, unassigned) [Compound 234d], the Ki is 51.9 nM. `Cn1cc([C@H]2CCCCN2C(=O)c2c(N)ccc(-c3cnc4c(c3Cl)C3(CC=CC3)CN4)c2F)cn1` (single isomer, unassigned) [Compound 239a] displayed a Ki of 0.89 nM. The molecule `Cn1cc([C@@H]2CCCCN2C(=O)c2c(N)ccc(-c3cnc4c(c3Cl)C3(CC=CC3)CN4)c2F)cn1` (single isomer, unassigned) [Compound 239b] yielded a Ki of 21 nM. Molecule `Cn1cc([C@H]2CCCCN2C(=O)c2cccc(-c3cnc4c(c3Cl)C3(CC=CC3)CN4)c2F)cn1` (single isomer, unassigned) [Compound 240a] had a Ki of 3.87 nM. The same measure for `Cn1cc([C@@H]2CCCCN2C(=O)c2cccc(-c3cnc4c(c3Cl)C3(CC=CC3)CN4)c2F)cn1` (single isomer, unassigned) [Compound 240b]: 112 nM. `CC[C@H]1C[C@@]12CNc1ncc(-c3ccc(N)c(C(=O)N(C)C)c3F)cc12` (single isomer, unassigned) [Compound 243a] showed a Ki of 5.78 nM. The result for `CC[C@@H]1C[C@]12CNc1ncc(-c3ccc(N)c(C(=O)N(C)C)c3F)cc12` (single isomer, unassigned) [Compound 243b] reads 10.4 nM; that for `CC[C@@H]1C[C@@]12CNc1ncc(-c3ccc(N)c(C(=O)N(C)C)c3F)cc12` (single isomer, unassigned) [Compound 243c], 63.1 nM; that for `CC[C@H]1C[C@]12CNc1ncc(-c3ccc(N)c(C(=O)N(C)C)c3F)cc12` (single isomer, unassigned) [Compound 243d], 25.1 nM.

For the molecule `Cn1cc(C2CCCCN2C(=O)c2cccc(-c3cnc4c(c3Cl)[C@]3(CC[C@H](O)CC3)CN4)c2F)cn1` (single isomer, unassigned) [Compound 246a], the affinity, expressed as Ki, was 10.3 nM.
